Values of other authors, collected in patent publication US9485971B2, “Fumarylacetoacetate hydrolase (Fah)-deficient pigs and uses thereof” (May Foundation for Medical Education and Research, priority 2010, dated 2016).

Tested on: Fah-deficient mice

O=C1CCCC(=O)C1C(=O)c1ccc(C(F)(F)F)cc1[N+](=O)[O-] [NTBC, 2-(2-nitro-4-trifluoro-methyl-benzoyl)-1,3 cyclohexanedione]
phenotype at suboptimal doses of NTBC (Fah-/- mice, suboptimal doses): develop HCC and fibrosis | effect on liver function and neonatal lethality (Fah-deficient mice treated with NTBC): restores liver function and abolishes neonatal lethality | hepatocellular carcinoma penetrance rate (suboptimal NTBC dose of 0.2 mg/kg/day, mice, within the first six months of life): exceeding 50%
